These results are taken from ChEMBL document CHEMBL1158166, “DNA binding and biological studies of some novel water-soluble polymer-copper(II)-phenanthroline complexes” (2008).

What all share (settings): read-out: IZ
For assay [1], the system named is Pseudomonas aeruginosa. Nature of the assay: Antibacterial activity against Pseudomonas aeruginosa at 1 ug/disc after 24 to 48 hrs.
Assay [2] deals with Bacillus subtilis. Kind of assay: Antibacterial activity against Bacillus subtilis at 1 ug/disc after 24 to 48 hrs.
Assay [3] has as its system Staphylococcus aureus. Nature of the assay: Antibacterial activity against Staphylococcus aureus at 1 ug/disc after 24 to 48 hrs.
The subject of assay [4] is Escherichia coli. Kind of assay: Antibacterial activity against Escherichia coli at 1 ug/disc after 24 to 48 hrs.
Assay [5] concerns Candida albicans. Kind of assay: Antifungal activity against Candida albicans at 10 ug/disc after 24 to 48 hrs. Format: functional.

Take `O=C(O)c1cn(C2CC2)c2cc(N3CCNCC3)c(F)cc2c1=O` [CIPROFLOXACIN]: the zone of inhibition at 1 µg/disc amounted to 17 mm in assay [1], 17 mm in assay [2], 16 mm in assay [3] and 16 mm in assay [4].
As for `Clc1ccccc1C(c1ccccc1)(c1ccccc1)n1ccnc1` [CLOTRIMAZOLE], in assay [5], the zone of inhibition at 10 µg/disc came out at 12 mm.
